Measured values reported in paper PMC9232501, “Results of the phase I CCTG IND.231 trial of CX-5461 in patients with advanced solid tumors enriched for DNA-repair deficiencies” (Nature Communications, 2022).
Values joined by “and” are separate entries in the source; they are usually repeats but may differ in a detail not shown here. Equal entries are not always repeated.

Assay: Plasma pharmacokinetics of CX-5461 (HPLC-MS/MS, non-compartmental)
Format: in vivo, human
Set-up: Day 1 CX-5461 plasma concentration: unit not given here
Settings: for Day 1 Cmax / Day 8 or 15 Cmax / Day 1 AUC / Day 8 or 15 AUC: one patient per datapoint; for Day 1 Cmax / Day 8 or 15 Cmax: in ng/mL; for Day 1 AUC / Day 8 or 15 AUC: in ng·h/mL (unit assumed)
Experimental: PK was assessed on all patients in the escalation phase. Venous blood samples were collected on treatment days 1, 8, and 15 (where applicable), and plasma CX-5461 was analyzed with HPLC-MS/MS (schedule details in Supplementary Table 3). PK parameters were calculated with non-compartmental methods. […] The protocol was amended to allow submission of a ctDNA sample and in a further amendment, a mandatory skin biopsy (pre-treatment and cycle 1 day 15) to study phototoxic effects. Fresh tumor biopsies were optional.
Supplementary Table 3. Schedule for collection of CX5461 pharmacokinetics
During infusion at 30 minutes
Immediately post infusion then:
C1D1 30 minutes post infusion
C1D2 24 hours post infusion
C1D3 48 hours post infusion
C1D4 72 hours post infusion
Immediately post infusion then
C1D15 30 minutes post infusion
C1D16 24 hours post infusion
In addition to the specific time points listed above, additional samples were to be collected from […]

Cc1cnc(CNC(=O)c2c(=O)c3ccc(N4CCCN(C)CC4)nc3n3c2sc2ccccc23)cn1 [CX-5461]
Day 1 CX-5461 plasma concentration (50 mg/m2, Time 0, individual patients): 623 | Day 1 CX-5461 plasma concentration (50 mg/m2, Time 24, individual patients): 40.3 and 34 | Day 1 CX-5461 plasma concentration (50 mg/m2, Time 48, individual patients): 40 and 22.9 | Day 1 CX-5461 plasma concentration (50 mg/m2, Time 72, individual patients): 16.6 and 12.9 | Day 1 CX-5461 plasma concentration (100 mg/m2, Time 24, individual patients): 53.2 and 76.4 and 34.5 and 70.1 | Day 1 CX-5461 plasma concentration (100 mg/m2, Time 48, individual patients): 49 and 52 and 48 | Day 1 CX-5461 plasma concentration (100 mg/m2, Time 72, individual patients): 28 and 33.5 and 33.8 | Day 1 CX-5461 plasma concentration (150 mg/m2, Time 0, individual patients): 415 and 821 | Day 1 CX-5461 plasma concentration (150 mg/m2, Time 24, individual patients): 176 and 102 and 165 and 350 | Day 1 CX-5461 plasma concentration (150 mg/m2, Time 48, individual patients): 135 and 49 and 101 and 265 | Day 1 CX-5461 plasma concentration (150 mg/m2, Time 72, individual patients): 90.2 and 31.2 and 92.6 and 180 | Day 1 CX-5461 plasma concentration (200 mg/m2, Time 0, individual patients): 218 and 3210 and 1850 and 745 | Day 1 CX-5461 plasma concentration (200 mg/m2, Time 24, individual patients): 102 and 78.2 and 124 | Day 1 CX-5461 plasma concentration (200 mg/m2, Time 48, individual patients): 55 and 145 and 69.8 and 79.1 | Day 1 CX-5461 plasma concentration (200 mg/m2, Time 72, individual patients): 52.5 and 43.9 and 51.7 | Day 1 CX-5461 plasma concentration (250 mg/m2, Time 24, individual patients): 125 and 233 | Day 1 CX-5461 plasma concentration (250 mg/m2, Time 48, individual patients): 101 and 169 | Day 1 CX-5461 plasma concentration (250 mg/m2, Time 72, individual patients): 68 and 111 | Day 1 CX-5461 plasma concentration (325 mg/m2, Time 24, individual patients): 160 and 193 | Day 1 CX-5461 plasma concentration (325 mg/m2, Time 48, individual patients): 132 and 97 | Day 1 CX-5461 plasma concentration (325 mg/m2, Time 72, individual patients): 121 and 69.4 | Day 1 CX-5461 plasma concentration (475 mg/m2, Time 24, individual patients): 222 and 204 | Day 1 CX-5461 plasma concentration (475 mg/m2, Time 48, individual patients): 199 and 146 | Day 1 CX-5461 plasma concentration (475 mg/m2, Time 72, individual patients): 203 and 132 | Day 1 CX-5461 plasma concentration (650 mg/m2, Time 24, individual patients): 255 and 361 and 196 and 161 and 173 and 233 | Day 1 CX-5461 plasma concentration (650 mg/m2, Time 48, individual patients): 234 and 439 and 165 and 107 and 154 | Day 1 CX-5461 plasma concentration (650 mg/m2, Time 72, individual patients): 322 and 261 and 170 and 87.5 and 137 and 154 | Day 1 CX-5461 plasma concentration (B: 325 mg/m2, Time 24, individual patients): 254 and 120 and 133 and 175 | Day 1 CX-5461 plasma concentration (B: 325 mg/m2, Time 48, individual patients): 156 and 435 and 136 | Day 1 CX-5461 plasma concentration (B: 325 mg/m2, Time 72, individual patients): 93.9 and 199 and 103 | Day 1 CX-5461 plasma concentration (B: 475 mg/m2, Time 24, individual patients): 401 and 324 and 275 and 184 | Day 1 CX-5461 plasma concentration (B: 475 mg/m2, Time 48, individual patients): 288 and 213 and 252 | Day 1 CX-5461 plasma concentration (B: 475 mg/m2, Time 72, individual patients): 187 and 199 and 113 | Day 1 Cmax (Dose level 50 (mg/m2)): 623 and 1070 and 830 and 388 | Day 8 or 15 Cmax (Dose level 50 (mg/m2)): 616 and 1040 and 271 | Day 1 AUC (Dose level 50 (mg/m2)): 4080 and 3310 | Day 8 or 15 AUC (Dose level 50 (mg/m2)): 6520 and 1970 and 4580 | Day 1 Cmax (Dose level 100 (mg/m2)): 1580 and 662 and 799 and 1330 | Day 8 or 15 Cmax (Dose level 100 (mg/m2)): 1030 and 243 | Day 1 AUC (Dose level 100 (mg/m2)): 4870 and 3830 and 5290 | Day 8 or 15 AUC (Dose level 100 (mg/m2)): 7780 and 8830 and 2350 | Day 1 Cmax (Dose level 150 (mg/m2)): 2370 and 1080 and 1010 | Day 8 or 15 Cmax (Dose level 150 (mg/m2)): 1970 and 1090 and 697 | Day 1 AUC (Dose level 150 (mg/m2)): 12000 and 19500 and 11500 and 7650 | Day 8 or 15 AUC (Dose level 150 (mg/m2)): 18700 and 23900 and 12600 | Day 1 Cmax (Dose level 200 (mg/m2)): 265 and 3210 and 805 | Day 8 or 15 Cmax (Dose level 200 (mg/m2)): 1560 and 170 and 2180 and 795 | Day 1 AUC (Dose level 200 (mg/m2)): 5690 and 22300 and 12900 and 8410 | Day 8 or 15 AUC (Dose level 200 (mg/m2)): 9650 and 2530 and 25500 and 14100 | Day 1 Cmax (Dose level 250 (mg/m2)): 867 and 2350 and 1010 | Day 8 or 15 Cmax (Dose level 250 (mg/m2)): 1290 and 368 and 654 | Day 1 AUC (Dose level 250 (mg/m2)): 16300 and 16100 | Day 8 or 15 AUC (Dose level 250 (mg/m2)): 21800 and 18700 | Day 1 Cmax (Dose level 325 (mg/m2)): 938 and 960 | Day 8 or 15 Cmax (Dose level 325 (mg/m2)): 482 and 1190 | Day 1 AUC (Dose level 325 (mg/m2)): 12800 and 11200 | Day 8 or 15 AUC (Dose level 325 (mg/m2)): 15200 | Day 1 Cmax (Dose level 475 (mg/m2)): 1460 and 2510 | Day 8 or 15 Cmax (Dose level 475 (mg/m2)): 1500 and 1940 | Day 1 AUC (Dose level 475 (mg/m2)): 17900 and 17100 | Day 8 or 15 AUC (Dose level 475 (mg/m2)): 7410 and 31300 and 32900 | Day 1 Cmax (Dose level 650 (mg/m2)): 4290 and 1840 and 2280 and 3810 and 3180 | Day 8 or 15 Cmax (Dose level 650 (mg/m2)): 6050 and 2790 and 2540 and 5480 and 3990 | Day 1 AUC (Dose level 650 (mg/m2)): 29600 and 16700 and 21400 | Day 8 or 15 AUC (Dose level 650 (mg/m2)): 48200 and 23200 and 59300 and 44400 and 13900 | Day 1 Cmax (Dose level B: 325 (mg/m2)): 1030 and 1200 and 1520 | Day 8 or 15 Cmax (Dose level B: 325 (mg/m2)): 3590 and 1510 and 1240 | Day 1 AUC (Dose level B: 325 (mg/m2)): 19700 and 20400 and 21500 | Day 8 or 15 AUC (Dose level B: 325 (mg/m2)): 48100 and 7080 and 11700 and 7620 | Day 1 Cmax (Dose level B: 475 (mg/m2)): 2510 and 2620 and 1660 and 982 and 953 | Day 8 or 15 Cmax (Dose level B: 475 (mg/m2)): 1370 and 2630 and 6800 and 1020 | Day 1 AUC (Dose level B: 475 (mg/m2)): 43600 and 26400 and 23500 and 32100 | Day 8 or 15 AUC (Dose level B: 475 (mg/m2)): 18300 and 14200 and 52600 and 11900 and 7800 | concentration at 0.5 h (human, plasma, intravenous, 50 mg/m2, 50 mg/m2, Time 0.5, individual patients, read-out: Day 1 CX-5461 plasma concentration): 155 ng/mL | concentration at 1 h (human, plasma, intravenous, 50 mg/m2, 50 mg/m2, Time 1, individual patients, read-out: Day 1 CX-5461 plasma concentration): 104 ng/mL | concentration at 2 h (human, plasma, intravenous, 50 mg/m2, 50 mg/m2, Time 2, individual patients, read-out: Day 1 CX-5461 plasma concentration): 96.5 ng/mL | concentration at 4 h (human, plasma, intravenous, 50 mg/m2, 50 mg/m2, Time 4, individual patients, read-out: Day 1 CX-5461 plasma concentration): 74.9 ng/mL | concentration at 6 h (human, plasma, intravenous, 50 mg/m2, 50 mg/m2, Time 6, individual patients, read-out: Day 1 CX-5461 plasma concentration): 61.6 ng/mL | concentration at 24 h (human, plasma, intravenous, 50 mg/m2, 50 mg/m2, Time 24, individual patients, read-out: Day 1 CX-5461 plasma concentration): 40 ng/mL
